Test results from US11918592B2, “Inhibitors of cyclin dependent kinase 7 (CDK7)” (Syros Pharmaceuticals, Inc., priority 2018, dated 2024).
pIC50: −log10 of the molar value.

How the values were obtained:
HCC70 cells = test: Inhibition of cell proliferation, CyQUANT Direct, HCC70; type: cell-based, human; settings: Homo sapiens; HCC70 triple negative breast cancer cells, 72-hour; read-out: HCC 70 proliferation calculated IC50
Method: (§1) HCC70 and MB453 cells are cell lines derived from human triple negative breast cancer. COV318 and COV504 cells are cell lines derived from human ovarian cancer. Representative compounds of the invention were tested at different concentrations (from 4 μM to 126.4 pM; 0.5 log serial dilutions) for their ability to inhibit the proliferation of each of these cell lines. Known CDK inhibitors dinaciclib or N-((1S,3R)-3-((5-chloro-4-(1H-indol-3-yl) pyrimidin-2-yl)amino)cyclohexyl)-5-((E)-4-(dimethylamino)but-2-enamido)picolinamide and triptolide were used as positive controls. Cells were seeded at approximately 2,000 cells/well and grown in ATCC-formulated RPMI-1640 Medium (ATCC 30-2001)+10% FBS. The cells were cultured at 37° C. in a humidified chamber in the presence of 5% CO2. Proliferation assays were conducted over a 72-hour time period. CyQUANT® Direct Cell Proliferation Assay (Life Technologies, Chicago, IL USA) was used to assess the anti-proliferative effects of the compounds following manufacturer's directions and utilizing the reagents supplied with the CyQUANT® Direct Cell kit.

COV318 cells = test: Inhibition of cell proliferation, CyQUANT Direct, COV318; type: cell-based; settings: Homo sapiens; COV318 ovarian cancer cells, 72-hour; read-out: COV 318 proliferation calculated IC50
Method: as §1

COV504 cells = test: Inhibition of cell proliferation, CyQUANT Direct, COV504; type: cell-based; settings: Homo sapiens; COV504 ovarian cancer cells, 72-hour; read-out: COV 504 proliferation calculated IC50
Method: as §1

MB453 cells = test: Inhibition of cell proliferation, CyQUANT Direct, MB453; type: cell-based, human; settings: Homo sapiens; MB453 triple negative breast cancer cells, 72-hour; read-out: MB 453 proliferation calculated IC50
Method: as §1

CDK2/Cyclin E1 complex = CDK2/Cyclin E1 complex (Homo sapiens, UniProt P24941); test: CDK2 kinase inhibition assay (Caliper/LabChip EZ Reader)
Method: (§2) Compounds of the invention were assayed for inhibition of CDK7, CDK9, CDK12, and CDK2 activity at Biortus Biosciences (Jiangyin, Jiangsu Province, P.R. of China) using kinase assays for each CDK developed with a Caliper/LabChip EZ Reader (Perkin Elmer, Waltham, MA).
(§3) Furthermore, the CDK9 inhibition assay used CDK9/Cyclin T1 complex (8 nM) and “5-FAM-CDK9tide” peptide substrate (2 μM, synthesized fluorophore-labeled peptide with the following sequence: 5-FAM-GSRTPMY-NH2 (SEQ ID NO:2) where 5-FAM is defined above and NH2 signifies a C-terminal amide) with 10 mM MgCl2 in the buffer composition listed above. The CDK12 inhibition assay used CDK12 (aa686-1082)/Cyclin K complex (50 nM) and “5-FAM-CDK9tide” (2 μM) as defined above, with 2 mM MgCl2 in the buffer composition above. Additionally, the CDK2 inhibition assay used CDK2/Cyclin E1 complex (0.5 nM) and “5-FAM-CDK7tide” (2 μM) as defined above, with 2 mM MgCl2 in the buffer composition listed above.
(§4) The incubation period at 27° C. for each CDK inhibition assay was chosen such that the fraction of phosphorylated peptide product produced in each assay, relative to the total peptide concentration, was approximately 20% (±5%) for the uninhibited kinase (35 min. for CDK7, 35 min. for CDK2, 3 hr. for CDK12, 15 min. for CDK9).

[1] = molecular target: CDK7/Cyclin H/MAT1 complex (Homo sapiens, UniProt P50613); test: CDK7 kinase inhibition assay (Caliper/LabChip EZ Reader)
Method: as §2, §3, §4

CDK9/Cyclin T1 complex = CDK9/Cyclin T1 complex (Homo sapiens, UniProt P50750); test: CDK9 kinase inhibition assay (Caliper/LabChip EZ Reader)
Method: as §2, §3, §4

[2] = molecular target: CDK12 (aa686-1082)/Cyclin K complex (Homo sapiens, UniProt Q9NYV4); test: CDK12 kinase inhibition assay (Caliper/LabChip EZ Reader)
Chain of CDK12 (aa686-1082)/Cyclin K complex (Q9NYV4 686-1082): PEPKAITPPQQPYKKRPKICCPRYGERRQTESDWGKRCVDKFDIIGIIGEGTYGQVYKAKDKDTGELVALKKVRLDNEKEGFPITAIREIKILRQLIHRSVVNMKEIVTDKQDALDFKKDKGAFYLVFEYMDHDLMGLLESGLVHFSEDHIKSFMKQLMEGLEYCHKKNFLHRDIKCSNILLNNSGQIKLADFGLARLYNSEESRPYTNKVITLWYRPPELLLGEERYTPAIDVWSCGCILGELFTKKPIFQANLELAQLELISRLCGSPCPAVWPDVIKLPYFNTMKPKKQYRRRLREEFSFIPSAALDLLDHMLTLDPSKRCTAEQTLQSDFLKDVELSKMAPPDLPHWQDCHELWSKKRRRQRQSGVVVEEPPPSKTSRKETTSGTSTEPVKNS
Chain of CDK12 (aa686-1082)/Cyclin K complex (O75909 whole entry partner, the tested form may be a part): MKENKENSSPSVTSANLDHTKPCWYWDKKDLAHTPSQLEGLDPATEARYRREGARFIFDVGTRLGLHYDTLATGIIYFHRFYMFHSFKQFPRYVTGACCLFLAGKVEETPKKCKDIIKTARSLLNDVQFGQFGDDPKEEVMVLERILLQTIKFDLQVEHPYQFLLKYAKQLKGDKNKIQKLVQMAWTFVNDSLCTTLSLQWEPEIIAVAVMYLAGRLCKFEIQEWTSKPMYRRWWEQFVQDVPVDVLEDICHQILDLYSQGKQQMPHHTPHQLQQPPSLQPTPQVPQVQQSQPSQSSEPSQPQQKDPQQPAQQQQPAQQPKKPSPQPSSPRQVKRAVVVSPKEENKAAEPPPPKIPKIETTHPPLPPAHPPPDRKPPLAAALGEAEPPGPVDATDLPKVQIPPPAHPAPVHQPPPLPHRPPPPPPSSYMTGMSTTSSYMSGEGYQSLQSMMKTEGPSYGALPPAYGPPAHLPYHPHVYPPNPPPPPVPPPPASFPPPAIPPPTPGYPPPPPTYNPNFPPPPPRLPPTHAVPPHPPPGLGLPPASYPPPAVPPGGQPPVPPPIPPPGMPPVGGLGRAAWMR
Method: as §2, §3, §4

Chain of CDK9/Cyclin T1 complex (P50750 whole entry, the tested form may be a part): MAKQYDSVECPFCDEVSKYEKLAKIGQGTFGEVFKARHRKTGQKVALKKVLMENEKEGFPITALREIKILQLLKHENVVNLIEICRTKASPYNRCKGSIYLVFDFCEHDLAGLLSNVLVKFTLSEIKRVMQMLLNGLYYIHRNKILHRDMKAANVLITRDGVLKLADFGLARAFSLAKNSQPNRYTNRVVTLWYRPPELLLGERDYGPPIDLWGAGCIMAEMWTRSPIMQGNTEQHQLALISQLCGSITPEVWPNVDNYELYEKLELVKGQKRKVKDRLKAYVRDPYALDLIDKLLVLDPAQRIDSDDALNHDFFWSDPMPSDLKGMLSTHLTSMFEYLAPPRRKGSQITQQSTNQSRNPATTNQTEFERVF
Chain of CDK9/Cyclin T1 complex (O60563 whole entry partner, the tested form may be a part): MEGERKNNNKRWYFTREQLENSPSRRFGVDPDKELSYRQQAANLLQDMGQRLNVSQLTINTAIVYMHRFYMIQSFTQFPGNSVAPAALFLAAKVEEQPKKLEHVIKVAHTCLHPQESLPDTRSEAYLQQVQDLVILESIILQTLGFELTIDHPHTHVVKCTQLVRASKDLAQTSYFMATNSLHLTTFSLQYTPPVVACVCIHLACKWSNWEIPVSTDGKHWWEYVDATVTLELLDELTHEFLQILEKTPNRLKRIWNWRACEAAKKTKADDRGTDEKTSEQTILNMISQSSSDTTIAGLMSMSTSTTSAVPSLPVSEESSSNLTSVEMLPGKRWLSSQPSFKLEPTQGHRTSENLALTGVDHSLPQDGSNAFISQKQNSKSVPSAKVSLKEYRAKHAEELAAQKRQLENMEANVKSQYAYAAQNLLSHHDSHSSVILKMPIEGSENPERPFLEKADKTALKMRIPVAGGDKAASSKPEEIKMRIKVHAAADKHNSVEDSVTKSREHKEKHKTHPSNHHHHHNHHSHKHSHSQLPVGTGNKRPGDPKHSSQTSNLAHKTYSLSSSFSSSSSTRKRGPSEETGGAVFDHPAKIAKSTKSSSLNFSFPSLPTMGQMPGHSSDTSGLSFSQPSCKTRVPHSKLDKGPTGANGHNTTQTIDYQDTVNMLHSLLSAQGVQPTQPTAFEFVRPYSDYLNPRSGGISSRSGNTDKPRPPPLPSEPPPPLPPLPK
Chain of CDK7/Cyclin H/MAT1 complex (P50613 whole entry): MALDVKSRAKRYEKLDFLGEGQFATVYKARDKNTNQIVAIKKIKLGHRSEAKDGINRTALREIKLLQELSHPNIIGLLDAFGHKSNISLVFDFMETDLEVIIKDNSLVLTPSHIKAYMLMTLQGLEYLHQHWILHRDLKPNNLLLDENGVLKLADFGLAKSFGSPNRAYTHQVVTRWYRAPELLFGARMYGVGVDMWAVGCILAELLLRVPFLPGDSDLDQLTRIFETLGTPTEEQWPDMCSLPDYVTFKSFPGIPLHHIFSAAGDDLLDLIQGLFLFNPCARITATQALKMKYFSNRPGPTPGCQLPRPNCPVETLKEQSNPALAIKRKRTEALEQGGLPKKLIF
Chain of CDK7/Cyclin H/MAT1 complex (P51946 whole entry partner): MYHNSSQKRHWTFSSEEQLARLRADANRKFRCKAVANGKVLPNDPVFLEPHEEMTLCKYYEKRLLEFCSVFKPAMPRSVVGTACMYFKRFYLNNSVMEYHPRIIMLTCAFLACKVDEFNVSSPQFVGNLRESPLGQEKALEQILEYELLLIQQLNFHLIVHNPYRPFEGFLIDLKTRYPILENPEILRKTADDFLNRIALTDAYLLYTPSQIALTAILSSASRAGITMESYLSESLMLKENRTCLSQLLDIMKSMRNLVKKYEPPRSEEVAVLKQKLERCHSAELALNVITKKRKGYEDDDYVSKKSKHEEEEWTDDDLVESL
Chain of CDK7/Cyclin H/MAT1 complex (P51948 whole entry partner): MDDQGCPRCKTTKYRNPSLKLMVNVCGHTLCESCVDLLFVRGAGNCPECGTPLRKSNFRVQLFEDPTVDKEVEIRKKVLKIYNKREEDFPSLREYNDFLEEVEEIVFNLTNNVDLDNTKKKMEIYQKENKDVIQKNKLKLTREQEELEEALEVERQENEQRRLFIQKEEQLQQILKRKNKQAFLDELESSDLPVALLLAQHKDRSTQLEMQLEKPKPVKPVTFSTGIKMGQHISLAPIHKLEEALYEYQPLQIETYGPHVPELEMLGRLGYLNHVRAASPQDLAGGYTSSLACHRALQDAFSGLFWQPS

SMILES | pIC50 (HCC70 cells) | pIC50 (COV318 cells) | pIC50 (COV504 cells) | pIC50 (MB453 cells) | pIC50 (CDK2/Cyclin E1 complex) | pIC50 [1] | pIC50 (CDK9/Cyclin T1 complex) | pIC50 [2]
Cc1noc(C)c1-c1ccc2c(-c3nc(N[C@H]4CCC[C@H]4N4CC(F)(F)C4)ncc3C(F)(F)F)c[nH]c2n1 [Compound 167, N-[(1S,2R)-2-(3,3-difluoroazetidin-1-yl)cyclopentyl]-4-[6-(3,5-dimethylisoxazol-4-yl)-1H-pyrrolo[2,3-b]pyridin-3-yl]-5-(trifluoromethyl)pyrimidin-2-amine] | < 5.70 | < 5.70 | < 5.70 | < 5.70 | < 6.30 | < 6.30 | < 6.30 | < 6.30
N#Cc1ccc2c(-c3nc(N[C@H]4CC[C@@H]4N4CCCC4)ncc3C(F)(F)F)c[nH]c2c1 [Compound 135, 3-[2-[[(1S,2S)-2-pyrrolidin-1-ylcyclobutyl]-amino]-5-(trifluoromethyl)pyrimidin-4-yl]-1H-indole-6-carbonitrile] | < 5.70 | < 5.70 | 5.70 to 6.30 | 6.30 to 7.00 | < 6.30 | > 7.52 | < 6.30 | < 6.30
Cc1noc(C)c1-c1ccc2c(-c3nc(NC4CCCC4N)ncc3C(F)(F)F)c[nH]c2n1 (stereo not drawn) [Compound 127] | > 7.00 | 6.30 to 7.00 | > 7.00 | > 7.00 | < 6.30 | > 7.52 | < 6.30 | < 6.30
CCO[C@@H]1CNC[C@H]1Nc1ncc(C(F)(F)F)c(-c2c[nH]c3cc(C#N)ccc23)n1 (relative stereo) [Compound 111] | < 5.70 | < 5.70 | < 5.70 | < 5.70 | < 6.30 | 6.30 to 7.00 | < 6.30 | < 6.30
Cc1nsc(-c2ccc3c(-c4nc(N[C@H]5CCC[C@@H]5N)ncc4C(F)(F)F)c[nH]c3n2)n1 [Compound 158, (1S,2S)—N1-[4-[6-(3-methyl-1,2,4-thiadiazol-5-yl)-1H-pyrrolo [2,3-b]pyridin-3-yl]-5-(trifluoromethyl)pyrimidin-2-yl]cyclopentane-1,2-diamine] | 5.70 to 6.30 | < 5.70 | < 5.70 | 5.70 to 6.30 | < 6.30 | > 7.52 | < 6.30 | < 6.30
Cc1noc(C)c1-c1ccc2c(-c3nc(N[C@H]4CCC[C@@H]4NCCO)ncc3C(F)(F)F)c[nH]c2n1 [Compound 154, 2-[[(1S,2S)-2-[[4-[6-(3,5-dimethylisoxazol-4-yl)-1H-pyrrolo [2,3-b]pyridin-3-yl]-5-(trifluoromethyl)pyrimidin-2-yl]amino]cyclopentyl]amino]ethanol] | > 7.00 | 6.30 to 7.00 | > 7.00 | > 7.00 | < 6.30 | > 7.52 | < 6.30 | < 6.30
Cc1noc(C)c1-c1ccc2c(-c3nc(N[C@H]4CCC[C@@H]4N)ncc3C(F)(F)F)n[nH]c2n1 [Compound 157, (1S,2S)—N1-[4-[6-(3,5-dimethylisoxazol-4-yl)-1H-pyrazolo [3,4-b]pyridin-3-yl]-5-(trifluoromethyl)pyrimidin-2-yl]cyclopentane-1,2-diamine] | 6.30 to 7.00 | 6.30 to 7.00 | 6.30 to 7.00 | 6.30 to 7.00 | < 6.30 | > 7.52 | < 6.30 | < 6.30
N#Cc1ccc2c(-c3nc(N[C@H]4CN[C@H](CO)C4)ncc3C(F)(F)F)c[nH]c2c1 [Compound 112] | < 5.70 | < 5.70 | < 5.70 | 5.70 to 6.30 | < 6.30 | 6.30 to 7.00 | < 6.30 | < 6.30
COC1CN([C@H]2CCC[C@@H]2Nc2ncc(C(F)(F)F)c(-c3c[nH]c4nc(-c5c(C)noc5C)ccc34)n2)C1 [Compound 164, 4-[6-(3,5-dimethylisoxazol-4-yl)-1H-pyrrolo[2,3-b]pyridin-3-yl]-N-[(1S,2S)-2-(3-methoxyazetidin-1-yl)cyclopentyl]-5-(trifluoromethyl)pyrimidin-2-amine] | 6.30 to 7.00 | < 5.70 | 6.30 to 7.00 | 6.30 to 7.00 | < 6.30 | > 7.52 | < 6.30 | < 6.30
Cc1noc(C)c1-c1ccc2c(-c3nc(N[C@H]4CCC[C@@H]4N4CC(F)C4)ncc3C(F)(F)F)c[nH]c2n1 [Compound 155, 4-[6-(3,5-dimethylisoxazol-4-yl)-1H-pyrrolo [2,3-b]pyridin-3-yl]-N-[(1S, 2S)-2-(3-fluoroazetidin-1-yl)cyclopentyl]-5-(trifluoromethyl) pyrimidin-2-amine] | < 5.70 | < 5.70 | < 5.70 | < 5.70 | < 6.30 | 6.30 to 7.00 | < 6.30 | < 6.30
COCCN[C@H]1CC[C@@H]1Nc1ncc(C(F)(F)F)c(-c2c[nH]c3cc(C#N)ccc23)n1 [Compound 133] | 5.70 to 6.30 | 5.70 to 6.30 | 5.70 to 6.30 | 5.70 to 6.30 | < 6.30 | 7.00 to 7.52 | < 6.30 | < 6.30
CCN[C@H]1CC[C@@H]1Nc1ncc(C(F)(F)F)c(-c2c[nH]c3cc(C#N)ccc23)n1 [Compound 131, 3-[2-[[(1S,2S)-2-(ethylamino)cyclobutyl]-amino]-5-(trifluoromethyl)pyrimidin-4-yl]-1H-indole-6-carbonitrile] | 5.70 to 6.30 | 5.70 to 6.30 | 6.30 to 7.00 | 6.30 to 7.00 | < 6.30 | > 7.52 | < 6.30 | < 6.30
CCN[C@H]1CC[C@@H]1Nc1ncc(C(F)(F)F)c(-c2c[nH]c3nc(-c4c(C)noc4C)ccc23)n1 [Compound 160, (1S,2S)—N2-[4-[6-(3,5-dimethylisoxazol-4-yl)-1H-pyrrolo[2,3-b]pyridin-3-yl]-5-(trifluoromethyl)pyrimidin-2-yl]-N1-ethyl-cyclobutane-1,2-diamine] | > 7.00 | > 7.00 | > 7.00 | > 7.00 | < 6.30 | > 7.52 | < 6.30 | < 6.30
Cc1noc(C)c1-c1ccc2c(-c3nc(N[C@H]4CCC[C@@H]4N4CC[C@H](F)C4)ncc3C(F)(F)F)c[nH]c2n1 [Compound 150, 4-[6-(3,5-dimethylisoxazol-4-yl)-1H-pyrrolo[2,3-b]pyridin-3-yl]-N-[(1S,2S)-2-[(3S)-3-fluoropyrrolidin-1-yl]cyclopentyl]-5-(trifluoromethyl)pyrimidin-2-amine] | 5.70 to 6.30 | < 5.70 | 5.70 to 6.30 | < 5.70 | < 6.30 | 7.00 to 7.52 | < 6.30 | < 6.30
Cc1noc(C)c1-c1ccc2c(-c3nc(N[C@@H]4C[C@@H]5CC[C@H]4N5)ncc3C(F)(F)F)c[nH]c2n1 [Compound 140] | > 7.00 | > 7.00 | > 7.00 | > 7.00 | < 6.30 | > 7.52 | < 6.30 | < 6.30
CC(=O)N[C@H]1CC[C@@H]1Nc1ncc(C(F)(F)F)c(-c2c[nH]c3cc(C#N)ccc23)n1 [Compound 125, N-[(1S,2S)-2-[[4-(6-cyano-1H-indol-3-yl)-5-(trifluoromethyl)pyrimidin-2-yl]-amino]-cyclobutyl]-acetamide] | < 5.70 | < 5.70 | < 5.70 | 5.70 to 6.30 | < 6.30 | < 6.30 | < 6.30 | < 6.30
CN(C)[C@H]1CC[C@@H]1Nc1ncc(C(F)(F)F)c(-c2c[nH]c3cc(C#N)ccc23)n1 [Compound 126, 3-[2-[[(1S,2S)-2-(dimethylamino)cyclobutyl]-amino]-5-(trifluoromethyl)pyrimidin-4-yl]-1H-indole-6-carbonitrile] | < 5.70 | < 5.70 | 6.30 to 7.00 | 6.30 to 7.00 | < 6.30 | 7.00 to 7.52 | < 6.30 | < 6.30
N#Cc1ccc2c(-c3nc(N[C@H]4CCC[C@@H]4N)ncc3C(F)(F)F)c[nH]c2c1 [Compound 101] | 6.30 to 7.00 | 6.30 to 7.00 | 6.30 to 7.00 | 6.30 to 7.00 | < 6.30 | > 7.52 | < 6.30 | < 6.30
